Data from patent US20240009203A1, “COMPOSITIONS AND METHODS FOR TREATING ALZHEIMER'S DISEASE” (Cedars-Sinai Medical Center, priority 2020, published 2024).

Columns and labels:
[1] = tested on: ADtg mice; experiment: Y-maze test; format: in vivo
[2] = tested on: ADtg mice; experiment: Visual X maze (visual stimuli X-maze), color mode; format: in vivo
Procedure: (§1) Wildtype and ADtg mice (18 months, males and females) were treated with ETP69 or vehicle (DMSO-saline) to test the effects of ETP69 in improving cognition in a mouse model of Alzheimer's disease. On day 1, mice were treated with an injection of 10 mg/kg ETP69 of vehicle. Then starting on day 2, mice were tested in various behavioral tests, including Y-maze, visual test alternation, Open Field-Barnes Maze, and/or fear conditioning. On either day 4 or day 19 mice were sacrificed, and tissues analyzed for histone trimethylation levels, A-beta levels, immunohistochemistry (GFAP, IGF1), Spine count (Golgi-Cox staining), —Neurotrophic support and synaptic markers.
The results of the Koronyo's Visual X Maze (color) indicate visual-cognitive memory and learning.
(§2) The effects of single and repeated ETP69 injections in mice were tested. The experimental timeline is depicted in FIG. 8. Three parallel injection conditions were tested: a single ETP69 condition, a boosted ETP69 injection, and repeated ETP69 injections, as depicted in Table 2. The single injection mice received one injection of ETP69 or DMSO at Day 0. The mice that received a boosted injection received one injection of ETP69 or DMSO at day 0 and one injection at day 9. The mice that received repeated injections received 11 injections of ETP69 or DMSO at day 0 or day 9. Both wildtype and AD model (APP/PS1-transgenic) mice were tested.
(§3) FIG. 10A-10D depicts the results of the mice on the color mode of the visual stimuli X-maze test. […] FIG. 10E-10F depict the results of the contrast mode of the visual stimuli X-maze test.
(§4) The effects of ETP69 injections in 14 month old mice was tested. Wildtype mice were divided into 2 treatment groups, mice that received an ETP69 injection (n=10) and mice that received a DMSO injection (N=10). AD+ mice were divided into 2 treatment groups, mice that received an ETP69 injection (n=8) and mice that received a DMSO injection (N=7). The experimental protocol is depicted in FIG. 15.
Mice were tested for visual-cognitive memory and learning using a visual X maze.
(§5) 18 month old wildtype and AD+ mice were administered an oral dose of 50 mg/kg ETP69 or oraB once a day for 4 weeks. The experimental protocol is depicted in FIG. 23.
On day 1, the mice were tested in the open field test as depicted in FIG. 24A. Rearing and total locomotor activity were measured in mice administered oraB and ETP69 (FIG. 24B-24G). On day 2, mice were tested in the color visual-stimuli X-maze. […] On day 3, mice were tested in the contrast visual-stimuli X-maze. Results are depicted in FIG. 26A-26E.

[3] = tested on: AD+ mice; experiment: Visual stimuli X-maze, contrast mode; format: in vivo; details: 18 mo, i.p. 10 mg/kg, contrast mode (FIG. 10E-10F)
Procedure: as §2, §3

[4] = tested on: ADtg mice; experiment: Open Field-Barnes Maze test; format: in vivo
Procedure: as §1
The results of the Open Field-Barnes Maze test indicate hippocampal-based spatial learning and memory.
as §2
The results of the Open Field Barnes Maze test indicate hippocampal-based spatial memory and learned. […] A comparison of results of single (S), boost (B) and repeated (R) injections is depicted in FIG. 11D-11H.
as §5
On days 4-7 mice were tested on the training phase of the Barnes Maze (FIG. 27A). On day 10, mice were tested on the retention phase. On days 11-12, mice were tested on the reversal phase. Results are depicted in FIG. 27B-27E.

[5] = tested on: ADtg mice; experiment: Fear conditioning test; format: in vivo
Procedure: as §1
The results of the fear conditioning test indicate spatial memory.
as §2, §4
The fear conditioning test was used to indicate spatial memory.

[6] = tested on: dendritic spines; experiment: Golgi-Cox staining of brain sections (dendritic spines); format: in vivo, mice
Procedure: as §1
Chromium salts which bind to proteins in the neuron are randomly formed during the impregnation, then transformed to black mercuric sulfide deposits upon alkali treatment (Ramón-Moliner, 1970; Špaček, 1989; Rosoklija et al., 2014). The architecture of the impregnated neuron, including cell somas, axons, dendrites and spines, could be easily visualized. It is expected that qualitative observations by these measures of brains from ADtg mice treated with ETP69 will show higher spine density as compared to brains of DMSO-injected control ADtg mice. FIG. 7A-7D include Golgi-Cox stain images of whole neurons and their dendritic projections.
The right brain hemispheres of 18 month old mice were stained with the Golgi-Cox method to detect the cytoarchitecture and morphology of neurons. FIG. 13A depicts representative images of the cingulate cortex of mice administered DMSO or ETP69 and FIG. 13B depicts a representative image of the hippocampal area of a mouse treated with ETP69.

[7] = tested on: H3K9me3; experiment: H3K9me3 brain staining and quantification; format: in vivo, mice
Excerpt: (§6) 18 month old AD+ mice brains were stained for neuronal H3K9me3 and DAPI. FIG. 14A is a representative image of the H3K9me3 signal across cortical layers. FIG. 14B is a representative image comparing ETP69 treated and DMSO control brains. […] FIG. 14D depicts immunohistochemistry of 6E10+ amyloid-beta plaques and GFAP+ astrogliosis in coronal sections of AD+ mice treated with ETP69 or DMSO.

[8] = tested on: 6E10+ amyloid-beta plaques; experiment: Immunohistochemistry of 6E10+ amyloid-beta plaques; format: in vivo, mice
Excerpt: FIG. 14A is a representative image of the H3K9me3 signal across cortical layers. FIG. 14B is a representative image comparing ETP69 treated and DMSO control brains. […] FIG. 14D depicts immunohistochemistry of 6E10+ amyloid-beta plaques and GFAP+ astrogliosis in coronal sections of AD+ mice treated with ETP69 or DMSO.

[9] = tested on: GFAP; experiment: GFAP+ astrogliosis (immunohistochemistry, western blot); format: in vivo, mice
Excerpt: as §6

[10] = tested on: Iba1; experiment: Iba1 immunohistochemistry; format: in vivo; details: 14 month old AD+ mice, compared to untreated AD+ mice (FIG. 18E)
[11] = tested on: cerebral macrophages, microglia, and astrocytes; experiment: Effects on cerebral inflammatory cells (FIG. 21A-21L); format: in vivo; details: AD+ mice (FIG. 21A-21L)
Excerpt: These phagocytic inflammatory cells may be involved in immune activation and clearing toxic Aβ. Restoring a young phenotype may explain reduced neuroinflammation and Aβ plaques in the ETP69 treated AD+ mice.

[12] = tested on: global proteome; experiment: Global proteome mass spectrometry analysis of brains; format: in vivo, mice
Excerpt: Overall, the experiments in these examples from multiple cohorts of 14- and 18-month-old murine models of AD (AD+ mice) and age/gender-matched control mice provide support that by inhibiting the enzyme SUV39H1 that regulates H3K9me3 via ETP69 compound (AKA NT1721), the chromatin state of subjects may be altered, and memory and synaptic plasticity may be restored in aging and AD brains. The therapeutic usefulness of ETP69 has been shown in the experiments described in these examples, in both aged WT mice and the well-established transgenic mouse models of AD (APPSWE/PS1ΔE9, AD+ mice), following a single (S), a boost (B), or once a week repeated (R) i.p. injections of ETP69. […] Additionally, in investigation of whole proteome profiles by mass spectrometry identified some mechanisms of action for ETP69 in the aged WT and AD+ mice.
(§7) FIGS. 19A, 19B, and 20 include global proteome data from a mass spectrometry analysis. […] Some of these proteins, such as HPX, may be involved in anti-oxidative-stress or anti-inflammatory pathways.

[13] = tested on: BDNF pathway; experiment: Ingenuity pathway analysis of proteome data, BDNF pathway; parameters: species or system mice; details: FIG. 19B, p<0.0001
Excerpt: as §7

[14] = tested on: proteins related to learning, cognition, conditioning, anxiety; experiment: Ingenuity analysis of behavioral pathways; parameters: species or system mice; details: FIG. 20
Excerpt: as §7

[15] = tested on: BDNF; experiment: BDNF expression in hippocampus; format: in vivo; details: dentate gyrus and other hippocampal regions, 18-mo-old AD-Tg mice, single ETP69 injection (FIG. 22)
Procedure: (§8) Expression of VGF, BDNF, and NCAM was analyzed in 18-month AD+ mice following a single ETP69 injection. Representative images are depicted in FIG. 22.

[16] = tested on: VGF; experiment: VGF expression in hippocampus; format: in vivo; details: dentate gyrus and other hippocampal regions, 18-mo-old AD-Tg mice, single ETP69 injection (FIG. 22)
Procedure: as §8

[17] = humans; cited from earlier work
[18] = AD+ mice, 18 mo, i.p. 10 mg/kg, color mode (FIG. 10A-10D)
[19] = ADtg mice, 18 months, injection of 10 mg/kg, compared with vehicle treated mice (FIG. 4A-4J)
[20] = ADtg mice, 18 months, injection of 10 mg/kg, compared with vehicle treated mice (FIG. 5A-5C)
[21] = cingulate cortex and hippocampus, 18 month old mice (FIG. 13C-13D)

CN1C(=O)[C@@]23C[C@](C)(C#N)[C@H](c4ccc5c(c4)OCO5)N2C(=O)[C@]1(C)SS3 (racemic) [ETP69, Rac-(3S,6S,7S,8aS)-6-(benzo[d][1,3]dioxol-5-yl)-2,3,7-trimethyl-1,4-dioxohexahydro-6H-3,8a-epidithiopyrrolo[1,2-a]pyrazine-7-carbonitrile]
percent alternation ([1]; AD+ mice, 18 mo, i.p. 10 mg/kg, vs AD+ DMSO (FIG. 9B)): significant increase
percent spontaneous alternation ([1]; ADtg mice, 18 months, injection of 10 mg/kg ETP69, compared with vehicle treated mice (FIG. 3A-3B)): improvement
number of total entries ([1]; both wildtype and AD+ mice, 18 mo, i.p. 10 mg/kg in DMSO, single/boost/repeated (FIG. 9A), indicates decreased locomotor activity): decreased
alternation ([2]; 14 month old AD+ mice, ETP69 injection, compared to untreated mice, mode not stated (FIG. 16A-16D)): improvements
bidirectional movement [2, 18]: significant increase
percent alternation [2, 18]: significant increase
color bidirectional [2, 19]: improvements
percent spontaneous alternation [2, 19]: improvements
reversing cognitive dysfunction ([2]; old mice (18 month), oral 50 mg/kg in oraB once a day for 4 weeks, color visual-stimuli X-maze (FIG. 25A-25E)): beneficial effects
percent alternation [3]: significant increase
memory retention ([4]; AD+ mice, 18 mo, i.p. 10 mg/kg, compared to AD+ mice treated with DMSO (FIG. 11A-11C)): improvement
incorrect entries [4, 20]: fewer
latency [4, 20]: reduced
memory retention [4, 20]: improvement
reversal of cognitive deficits ([4]; old AD-model mice (18 month), oral 50 mg/kg once a day for 4 weeks, Barnes Maze (FIG. 27B-27E)): significant reversal
freezing time ([5]; 14 month old AD+ mice, ETP69 injection (FIG. 17A-17B)): increase
freezing time ([5]; AD+ mice, 18 mo, i.p. 10 mg/kg (FIG. 12)): increased
freezing time ([5]; ADtg mice, 18 months, injection of 10 mg/kg (FIG. 6A-6B)): increased
association of spine preservation with errors in the Barnes maze test ([6]; 18 month old mice, correlation (FIG. 13G)): reduced errors
ratio of thin spines to all spines ([6]; AD+ mice, 18 month, compared to AD+ mice administered DMSO alone (FIG. 13E-13F)): significant increase
dendritic spines [6, 21]: increase
thin (immature) spines [6, 21]: increase
H3K9me3 ([7]; 14 month old AD+ mice, compared to untreated AD+ mice (FIG. 18B)): decrease
H3K9me3 staining ([7]; 18 month old AD+ mice, cortex and hippocampus (FIG. 14C)): significant decrease
6E10 ([8]; 14 month old AD+ mice, compared to untreated AD+ mice (FIG. 18C)): decrease
decrease in the amount of 6E10 amyloid plaques ([8]; brains of 18 month old AD+ mice (FIG. 14E)): 42%
GFAP ([9]; 14 month old AD+ mice, compared to untreated AD+ mice (FIG. 18D)): decrease
decrease of GFAP irradiance ([9]; 18 month old AD+ mice, cingulate cortex (FIG. 14F)): 58%
Iba1 [10]: decrease
effects on cerebral macrophages, microglia, and astrocytes [11]: dramatic effects
proteins upregulated, AD+ mice treated with ETP69 compared to untreated AD+ mice ([12]; brains, FIG. 19A): VAV3, CORO2A and HPX
most up-regulated proteins following ETP69 administration ([12]; whole proteome profiles by mass spectrometry, aged WT and AD+ mice): VGF and HP/HPX
BDNF pathway activation Z-score [13]: 2.359
proteins related to conditioning, anxiety, and other behaviors [14]: inhibition
proteins related to learning and cognition [14]: activation
BDNF expression [15]: Marked increases
VGF expression [16]: Marked increases
safety and tolerability [17]: generally safe and tolerable
